Paper PMC11722285, “Exploring the Potential of Malvidin and Echiodinin as Probable Antileishmanial Agents Through In Silico Analysis and In Vitro Efficacy” (Molecules, 2025)
Where two headings read alike, the source gives them in different places. One block for each molecule: values may come before it.

How the values were obtained:
Assay type in all cases: cell-based
[1] = system: L. amazonensis stationary promastigotes; test: In vitro antileishmanial activity, stationary promastigotes (MTT); conditions: for IC50: Leishmania amazonensis, 48 h, read-out: IC50 (µM) Stationary Promastigotes L. amazonensis; for Selectivity Index (SI) Stationary Promastigotes L. amazonensis: ratio between CC50 (macrophages) and IC50
Protocol: (§1) L. amazonensis (IFLA/BR/1967/PH-8), L. braziliensis (MHOM/BR/1975/M2903), and L. infantum (MHOM/BR/1970/BH46) were used as parasites. Stationary promastigotes were grown at a 24 °C in complete Schneider’s medium (Sigma-Aldrich, St. Louis, MO, USA), which was composed of medium plus 20% (v/v) heat-inactivated fetal bovine serum (FBS; Sigma-Aldrich, USA) and 20 mM L-glutamine with a pH of 7.4 [139]. To obtain the axenic amastigotes, 10^9 stationary promastigotes were washed three times in sterile phosphate-buffered saline (PBS 1X and incubated in 5 mL FBS for 48 h (L. amazonensis and L. braziliensis) and 72 h (L. infantum), respectively, at 37 °C. Parasites were washed in cold PBS 1x, and their morphology was evaluated after staining using the Giemsa method in an optical microscope, as previously described.
(§2) AmpB (0 to 10.8 µM; Sigma-Aldrich, USA) was used as control. Cell viability was assessed through 3-(4.5-dimethylthiazol-2-yl)-2.5-diphenyl tetrazolium bromide (Sigma-Aldrich, USA) method. Optical density (OD) values were measured in a microplate spectrophotometer (Molecular Devices, Spectra Max Plus, San Jose, CA, USA) at 570 nm. IC50 values were calculated by sigmoidal regression of dose–response curves in Microsoft Excel software (version 10.0). Two-tailed Student’s t-tests (p < 0.05) were used to compare IC50 values between malvidin and echioidinin, assessing significant differences in inhibitory activity.

[2] = system: L. braziliensis stationary promastigotes; test: as above; conditions: for IC50: Leishmania braziliensis, 48 h, read-out: IC50 (µM) Stationary Promastigotes L. braziliensis; for Selectivity Index (SI) Stationary Promastigotes L. braziliensis: ratio between CC50 (macrophages) and IC50
Protocol: as §1, §2

[3] = system: L. infantum stationary promastigotes; test: as above; conditions: for IC50: Leishmania infantum, 48 h, read-out: IC50 (µM) Stationary Promastigotes L. infantum; for Selectivity Index (SI) Stationary Promastigotes L. infantum: ratio between CC50 (macrophages) and IC50
Protocol: as §1, §2

[4] = system: L. amazonensis axenic amastigotes; test: In vitro antileishmanial activity, axenic amastigotes (MTT); conditions: for IC50: Leishmania amazonensis, 48 h, read-out: IC50 (µM) Axenic amastigotes L. amazonensis; for Selectivity Index (SI) Axenic amastigotes L. amazonensis: ratio between CC50 (macrophages) and IC50
Protocol: as §1, §2

[5] = system: L. braziliensis axenic amastigotes; test: as above; conditions: for IC50: Leishmania braziliensis, 48 h, read-out: IC50 (µM) Axenic amastigotes L. braziliensis; for Selectivity Index (SI) Axenic amastigotes L. braziliensis: ratio between CC50 (macrophages) and IC50
Protocol: as §1, §2

[6] = system: L. infantum axenic amastigotes; test: as above; conditions: for IC50: Leishmania infantum, 48 h, read-out: IC50 (µM) Axenic amastigotes L. infantum; for Selectivity Index (SI) Axenic amastigotes L. infantum: ratio between CC50 (macrophages) and IC50
Protocol: as §1, §2

[7] = Cytotoxicity assay in macrophages (MTT); conditions: mouse, murine macrophages, mean ± SD
Protocol: Cytotoxicity was evaluated ex vivo in murine macrophages and human red blood cells, for which concentrations inhibiting 50% of macrophages (CC50) and red blood cells (RBC50) were determined. […] Cells were incubated in RPMI 1640 medium for 48 h (murine macrophages) or 1 h (red blood cells) at 37 °C in 5% CO2. Macrophage viability was assessed using the MTT method. The red blood cell suspension was centrifuged at 1000× g for 10 min at 4 °C, after which the percentage of cell lysis was evaluated spectrophotometrically at 570 nm. The hemolysis was determined by replacing the natural products with an equal volume of phosphate-buffered saline with a pH of 7.4 (PBS—negative control) or distilled water (positive control). CC50 and RBC50 values were calculated by sigmoidal regression of dose–response curves in Microsoft Excel software (version 10.0). SI was calculated as the ratio between CC50 and IC50 values.

[8] = system: O+ human red blood cells; test: Hemolytic activity; conditions: lysis of 50% of O+ human red blood cells; 1 h; mean ± SD
Protocol: Cytotoxicity was evaluated ex vivo in murine macrophages and human red blood cells, for which concentrations inhibiting 50% of macrophages (CC50) and red blood cells (RBC50) were determined. Briefly, murine cells (5 × 10^5) or a 5% human red blood cells suspension were incubated in the presence of malvidin (0 to 301.84 µM) or echioidinin (0 to 356.76 µM) AmpB (0 to 10.82 µM) was used as control. Cells were incubated in RPMI 1640 medium for 48 h (murine macrophages) or 1 h (red blood cells) at 37 °C in 5% CO2. Macrophage viability was assessed using the MTT method. The red blood cell suspension was centrifuged at 1000× g for 10 min at 4 °C, after which the percentage of cell lysis was evaluated spectrophotometrically at 570 nm. The hemolysis was determined by replacing the natural products with an equal volume of phosphate-buffered saline with a pH of 7.4 (PBS—negative control) or distilled water (positive control). CC50 and RBC50 values were calculated by sigmoidal regression of dose–response curves in Microsoft Excel software (version 10.0). SI was calculated as the ratio between CC50 and IC50 values.

[9] = system: L. amazonensis-infected murine macrophages; test: Treatment of infected macrophages; conditions: 48 h
Protocol: (§3) To evaluate the efficacy of malvidin or echioidinin for treating infected macrophages, murine cells (5 × 10^5) were plated on round glass coverslips in 24-well plates in RPMI 1640 medium supplemented with 20% (v/v) FBS and 20 mM L-glutamine at a pH of 7.4 and incubated for 24 h at 37 °C in 5% CO2. Stationary promastigotes were added to the wells at a ratio of 10 parasites per macrophage, and cultures were incubated further for 48 h at 37 °C for 5% CO2. Free parasites were removed by extensive washing with RPMI 1640 medium, and infected macrophages were treated with malvidin (30.18, 60.37, and 120.74 µM), echioidinin (35.18, 70.36, and 140.72 µM), or AmpB (2.70 and 5.41 µM) for 48 h at […] in 5% CO2. After fixation with 4% paraformaldehyde, cells were washed and stained with Giemsa, and the infection percentage, the number of amastigotes per infected macrophage, and the reduction in the infection percentage were determined by counting 200 cells in triplicate, using an optical microscope.

[10] = system: L. braziliensis-infected murine macrophages; test: Treatment of infected macrophages; conditions: 48 h
Protocol: as §3

[11] = system: L. infantum-infected murine macrophages; test: Treatment of infected macrophages; conditions: 48 h
Protocol: as §3

[12] = stationary promastigotes, mean ± SD

IC50 [1, 12]: 273 ± 29 µM
IC50 [2, 12]: 251 ± 22 µM
IC50 [3, 12]: 213 ± 16 µM
IC50 ([4]; axenic amastigotes, mean ± SD): 336 ± 19 µM
IC50 ([5]; axenic amastigotes, mean ± SD): 293 ± 20 µM
IC50 ([6]; axenic amastigotes, mean ± SD): 262 ± 17 µM
SMILES: COc1cc(O)c2c(=O)cc(-c3ccccc3O)oc2c1 [Echioidinin, echioidinin]
Selectivity Index (SI) Stationary Promastigotes L. amazonensis [1]: 10.80
Selectivity Index (SI) Stationary Promastigotes L. braziliensis [2]: 12.10
Selectivity Index (SI) Stationary Promastigotes L. infantum [3]: 14.00
Selectivity Index (SI) Axenic amastigotes L. amazonensis [4]: 8.90
Selectivity Index (SI) Axenic amastigotes L. braziliensis [5]: 10.30
Selectivity Index (SI) Axenic amastigotes L. infantum [6]: 11.60
CC50 at 48 h [7]: 3010 ± 114 µM
RBC50 [8]: 3400.76 ± 78 µM
Infection After Treatment (%) ([9]; 35.18 µM): 80.20%
Infectiveness Reduction (%) ([9]; 35.18 µM): 13.11%
Number of Amastigotes per Macrophage ([9]; 35.18 µM): 5.40
Infection After Treatment (%) ([9]; 70.36 µM): 71.80%
Infectiveness Reduction (%) ([9]; 70.36 µM): 22.21%
Number of Amastigotes per Macrophage ([9]; 70.36 µM): 3.70
Infection After Treatment (%) ([9]; 140.72 µM): 63.40%
Infectiveness Reduction (%) ([9]; 140.72 µM): 31.31%
Number of Amastigotes per Macrophage ([9]; 140.72 µM): 6.30
Infection After Treatment (%) ([10]; 35.18 µM): 56.50%
Infectiveness Reduction (%) ([10]; 35.18 µM): 17.76%
Number of Amastigotes per Macrophage ([10]; 35.18 µM): 6.40
Infection After Treatment (%) ([10]; 70.36 µM): 50.80%
Infectiveness Reduction (%) ([10]; 70.36 µM): 26.06%
Number of Amastigotes per Macrophage ([10]; 70.36 µM): 3.70
Infection After Treatment (%) ([10]; 140.72 µM): 43.20%
Infectiveness Reduction (%) ([10]; 140.72 µM): 37.12%
Number of Amastigotes per Macrophage ([10]; 140.72 µM): 3.70
Infection After Treatment (%) ([11]; 35.18 µM): 65.50%
Infectiveness Reduction (%) ([11]; 35.18 µM): 12.08%
Number of Amastigotes per Macrophage ([11]; 35.18 µM): 4.80
Infection After Treatment (%) ([11]; 70.36 µM): 58.70%
Infectiveness Reduction (%) ([11]; 70.36 µM): 21.21%
Number of Amastigotes per Macrophage ([11]; 70.36 µM): 2.80
Infection After Treatment (%) ([11]; 140.72 µM): 50.70%
Infectiveness Reduction (%) ([11]; 140.72 µM): 31.95%
Number of Amastigotes per Macrophage ([11]; 140.72 µM): 4.20

SMILES: COc1cc(-c2[o+]c3cc(O)cc(O)c3cc2O)cc(OC)c1O [Malvidin, malvidin]
IC50 [1]: 198 ± 17 µM
Selectivity Index (SI) Stationary Promastigotes L. amazonensis [1]: 14.70
IC50 [2]: 164 ± 19 µM
Selectivity Index (SI) Stationary Promastigotes L. braziliensis [2]: 17.60
IC50 [3]: 141 ± 26 µM
Selectivity Index (SI) Stationary Promastigotes L. infantum [3]: 20.70
IC50 [4]: 258 ± 17 µM
Selectivity Index (SI) Axenic amastigotes L. amazonensis [4]: 11.30
IC50 [5]: 227.9 ± 1 µM
Selectivity Index (SI) Axenic amastigotes L. braziliensis [5]: 12.70
IC50 [6]: 174 ± 19 µM
Selectivity Index (SI) Axenic amastigotes L. infantum [6]: 16.70
Selectivity Index (SI) Axenic amastigotes L. infantum ([6]; listed as malvidin): 14.70
CC50 at 48 h [7]: 2920 ± 80 µM
RBC50 [8]: 3120.13 ± 107 µM
Infection After Treatment (%) ([9]; 30.18 µM): 75.60%
Infectiveness Reduction (%) ([9]; 30.18 µM): 18.09%
Number of Amastigotes per Macrophage ([9]; 30.18 µM): 3.30
Infection After Treatment (%) ([9]; 60.37 µM): 61.10%
Infectiveness Reduction (%) ([9]; 60.37 µM): 33.80%
Number of Amastigotes per Macrophage ([9]; 60.37 µM): 2.80
Infection After Treatment (%) ([9]; 120.74 µM): 59.30%
Infectiveness Reduction (%) ([9]; 120.74 µM): 35.75%
Number of Amastigotes per Macrophage ([9]; 120.74 µM): 3.80
Infection After Treatment (%) ([10]; 30.18 µM): 52.10%
Infectiveness Reduction (%) ([10]; 30.18 µM): 24.16%
Number of Amastigotes per Macrophage ([10]; 30.18 µM): 4.40
Infection After Treatment (%) ([10]; 60.37 µM): 48.70%
Infectiveness Reduction (%) ([10]; 60.37 µM): 29.11%
Number of Amastigotes per Macrophage ([10]; 60.37 µM): 5.40
Infection After Treatment (%) ([10]; 120.74 µM): 39.80%
Infectiveness Reduction (%) ([10]; 120.74 µM): 42.07%
Number of Amastigotes per Macrophage ([10]; 120.74 µM): 3.30
Infection After Treatment (%) ([11]; 30.18 µM): 61.20%
Infectiveness Reduction (%) ([11]; 30.18 µM): 17.85%
Number of Amastigotes per Macrophage ([11]; 30.18 µM): 4.70
Infection After Treatment (%) ([11]; 60.37 µM): 55.60%
Infectiveness Reduction (%) ([11]; 60.37 µM): 25.37%
Number of Amastigotes per Macrophage ([11]; 60.37 µM): 3.70
Infection After Treatment (%) ([11]; 120.74 µM): 49.80%
Infectiveness Reduction (%) ([11]; 120.74 µM): 33.15%
Number of Amastigotes per Macrophage ([11]; 120.74 µM): 2.70
